# The supplement of paper PMC10307832
# Compound: CC(C)N(CCCNC(=O)Nc1ccc(C(C)(C)C)cc1)C[C@H]1O[C@@H](n2ccc3c(N)ncnc32)[C@H](O)[C@@H]1O + Nc1nc2[nH]cc(CCc3ccc(C(=O)N[C@@H](CCC(=O)O)C(=O)O)cc3)c2c(=O)[nH]1 [Pemetrexed] (partner 0.2 µM)
# Experiment: relative viability (nuclei count vs DMSO), 5 days (fraction); higher = more cells survive
# Conditions: first compound 0.08 µM
# How it was run: (§1)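 One day after seeding in 1536-well plates, lung cancer cell lines were dosed by pin tool. Dosing was either single-drug or a fixed anchor-drug dose plus five library-drug doses (not always all listed) in √10 steps. After 5 days, nuclei were stained in one fix-and-stain step and counted on 4× images, and relative viability is the nuclei count of treated wells over that of vehicle wells, given as the median of duplicate plates.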
row,Cell Line,relative viability
1,COR-L 105,1.09
2,LOU-NH91,0.359
3,ChaGo-K-1,0.261
4,NCI-H2170,0.261
5,NCI-H3122,0.211
6,HOP-62,0.323
7,LU99A,0.178
8,BEN,0.705
9,HARA,0.229
10,HCC-78,0.869
11,NCI-H441,0.271
12,LCLC-97TM1,0.179
13,NCI-H2023,0.246
14,A-427,1.05
15,NCI-H460,0.0586
16,NCI-H838,0.259
17,NCI-H1734,0.397

row,Cell Line,relative viability
1,NCI-H596,0.515
2,NCI-H2405,1.09
3,NCI-H1395,0.882
4,201T,0.334
5,NCI-H1915,0.444
6,HCC-827,0.257
7,LXF-289,0.876
8,NCI-H2347,0.444
9,CAL-12T,1.21
10,NCI-H1651,0.654
11,EPLC-272H,0.404
12,NCI-H23,0.732
13,NCI-H1355,0.964
14,NCI-H322M,0.634
15,NCI-H1437,0.31
16,NCI-H1755,0.391

# Same assay, conditions: first compound 0.253 µM
row,Cell Line,relative viability
1,COR-L 105,1.01
2,LOU-NH91,0.373
3,ChaGo-K-1,0.256
4,NCI-H2170,0.263
5,NCI-H3122,0.194
6,HOP-62,0.433
7,LU99A,0.206
8,BEN,0.646
9,HARA,0.293
10,HCC-78,0.848
11,NCI-H441,0.242
12,LCLC-97TM1,0.175
13,NCI-H2023,0.246
14,A-427,0.998
15,NCI-H460,0.06
16,NCI-H838,0.223

row,Cell Line,relative viability
1,NCI-H1734,0.417
2,NCI-H596,0.465
3,NCI-H2405,1.08
4,NCI-H1395,0.705
5,201T,0.368
6,NCI-H1915,0.473
7,HCC-827,0.284
8,LXF-289,1
9,NCI-H2347,0.411
10,CAL-12T,1.16
11,NCI-H1651,0.527
12,EPLC-272H,0.303
13,NCI-H1355,1.05
14,NCI-H322M,0.609
15,NCI-H1437,0.307
16,NCI-H1755,0.447

# Same assay, conditions: first compound 0.8 µM
row,Cell Line,relative viability
1,COR-L 105,1.18
2,ChaGo-K-1,0.259
3,NCI-H2170,0.261
4,NCI-H3122,0.198
5,HOP-62,0.39
6,LU99A,0.176
7,BEN,0.762
8,HARA,0.236
9,HCC-78,0.928
10,LCLC-97TM1,0.18
11,NCI-H2023,0.232
12,A-427,0.937
13,NCI-H460,0.0609
14,NCI-H838,0.283
15,NCI-H1734,0.431
16,NCI-H596,0.514
17,NCI-H2405,0.999
18,NCI-H1395,0.553
19,NCI-H1915,0.449
20,HCC-827,0.279
21,LXF-289,0.96
22,NCI-H2347,0.439
23,CAL-12T,1.1
24,NCI-H1651,0.57
25,EPLC-272H,0.298
26,NCI-H23,0.693
27,NCI-H1355,0.761
28,NCI-H322M,0.617
29,NCI-H1437,0.325
30,NCI-H1755,0.387

# Same assay, conditions: first compound 2.53 µM
row,Cell Line,relative viability
1,COR-L 105,1.11
2,LOU-NH91,0.439
3,ChaGo-K-1,0.258
4,NCI-H2170,0.296
5,NCI-H3122,0.192
6,HOP-62,0.31
7,LU99A,0.204
8,BEN,0.694
9,HARA,0.233
10,HCC-78,0.844
11,NCI-H441,0.263
12,LCLC-97TM1,0.163
13,NCI-H2023,0.215
14,A-427,0.929
15,NCI-H460,0.0624
16,NCI-H838,0.245
17,NCI-H1734,0.417

row,Cell Line,relative viability
1,NCI-H596,0.53
2,NCI-H2405,1.01
3,NCI-H1395,0.899
4,201T,0.304
5,NCI-H1915,0.467
6,HCC-827,0.267
7,LXF-289,1.02
8,NCI-H2347,0.441
9,CAL-12T,0.983
10,NCI-H1651,0.599
11,EPLC-272H,0.341
12,NCI-H23,0.709
13,NCI-H1355,1.03
14,NCI-H322M,0.593
15,NCI-H1437,0.296
16,NCI-H1755,0.489

# Same assay, conditions: first compound 8 µM
row,Cell Line,relative viability
1,COR-L 105,0.956
2,LOU-NH91,0.427
3,ChaGo-K-1,0.268
4,NCI-H2170,0.29
5,NCI-H3122,0.199
6,HOP-62,0.356
7,LU99A,0.167
8,BEN,0.72
9,HARA,0.231
10,HCC-78,0.846
11,NCI-H441,0.253
12,LCLC-97TM1,0.183
13,NCI-H2023,0.213
14,A-427,0.99
15,NCI-H460,0.0643
16,NCI-H838,0.235
17,NCI-H1734,0.412

row,Cell Line,relative viability
1,NCI-H596,0.493
2,NCI-H2405,0.968
3,NCI-H1395,0.922
4,201T,0.351
5,NCI-H1915,0.497
6,HCC-827,0.269
7,LXF-289,0.833
8,NCI-H2347,0.409
9,CAL-12T,1.05
10,NCI-H1651,0.601
11,EPLC-272H,0.396
12,NCI-H23,0.627
13,NCI-H1355,0.976
14,NCI-H322M,0.631
15,NCI-H1437,0.283
16,NCI-H1755,0.348

# Compound: CC(C)N(CCCNC(=O)Nc1ccc(C(C)(C)C)cc1)C[C@H]1O[C@@H](n2ccc3c(N)ncnc32)[C@H](O)[C@@H]1O + COc1cc2c(Oc3ccc(NC(=O)C4(C(=O)Nc5ccc(F)cc5)CC4)cc3F)ccnc2cc1OCCCN1CCOCC1 [Foretinib] (partner 0.25 µM)
# Experiment: as above
# Conditions: first compound 0.08 µM
# How it was run: as §1
row,Cell Line,relative viability
1,COR-L 105,1.14
2,LOU-NH91,0.858
3,ChaGo-K-1,0.915
4,NCI-H2170,0.967
5,NCI-H3122,0.887
6,HOP-62,0.974
7,LU99A,0.795
8,BEN,0.629
9,HARA,0.751
10,HCC-78,0.509
11,NCI-H441,1.01
12,LCLC-97TM1,0.927
13,NCI-H2023,0.811
14,A-427,1.08
15,NCI-H460,1.05
16,NCI-H838,1.05
17,NCI-H1734,0.825

row,Cell Line,relative viability
1,NCI-H596,0.792
2,NCI-H2405,1.02
3,NCI-H1395,0.957
4,201T,1.05
5,NCI-H1915,1.02
6,HCC-827,0.907
7,LXF-289,0.96
8,NCI-H2347,1.1
9,CAL-12T,1.2
10,NCI-H1651,0.876
11,EPLC-272H,0.688
12,NCI-H23,0.891
13,NCI-H1355,0.755
14,NCI-H322M,0.904
15,NCI-H1437,1.21
16,NCI-H1755,0.92

# Same assay, conditions: first compound 0.253 µM
row,Cell Line,relative viability
1,COR-L 105,0.99
2,LOU-NH91,0.946
3,ChaGo-K-1,0.924
4,NCI-H2170,0.987
5,NCI-H3122,0.951
6,HOP-62,1.23
7,LU99A,0.782
8,BEN,0.935
9,HARA,0.878
10,HCC-78,0.497
11,NCI-H441,0.913
12,LCLC-97TM1,0.821
13,NCI-H2023,0.958
14,A-427,1.04
15,NCI-H460,1.1
16,NCI-H838,0.981

row,Cell Line,relative viability
1,NCI-H1734,1.01
2,NCI-H2405,1.07
3,NCI-H1395,0.839
4,201T,1.04
5,NCI-H1915,1.07
6,HCC-827,1.07
7,LXF-289,1.03
8,NCI-H2347,0.778
9,CAL-12T,1.06
10,NCI-H1651,0.79
11,EPLC-272H,0.469
12,NCI-H23,0.964
13,NCI-H1355,0.839
14,NCI-H322M,0.894
15,NCI-H1437,1.2
16,NCI-H1755,0.909

# Same assay, conditions: first compound 0.8 µM
row,Cell Line,relative viability
1,COR-L 105,1.02
2,LOU-NH91,0.571
3,ChaGo-K-1,0.974
4,NCI-H2170,0.995
5,NCI-H3122,0.979
6,HOP-62,1.02
7,LU99A,0.78
8,BEN,0.689
9,HARA,0.756
10,HCC-78,0.5
11,LCLC-97TM1,1.02
12,NCI-H2023,1.02
13,A-427,1.1
14,NCI-H460,1.03
15,NCI-H838,1.17
16,NCI-H1734,0.918
17,NCI-H596,0.846
18,NCI-H2405,1.04
19,NCI-H1395,0.909
20,NCI-H1915,1.06
21,LXF-289,0.94
22,NCI-H2347,0.865
23,CAL-12T,1.07
24,NCI-H1651,0.86
25,EPLC-272H,0.73
26,NCI-H23,1.02
27,NCI-H1355,0.933
28,NCI-H322M,0.94
29,NCI-H1437,1.19
30,NCI-H1755,0.925

# Same assay, conditions: first compound 2.53 µM
row,Cell Line,relative viability
1,COR-L 105,1.07
2,LOU-NH91,0.958
3,ChaGo-K-1,0.901
4,NCI-H2170,0.992
5,NCI-H3122,0.922
6,HOP-62,1.06
7,LU99A,0.767
8,BEN,0.567
9,HARA,0.6
10,HCC-78,0.524
11,NCI-H441,0.801
12,LCLC-97TM1,0.999
13,NCI-H2023,1.03
14,A-427,1.1
15,NCI-H460,1.05
16,NCI-H838,0.981
17,NCI-H1734,0.796

row,Cell Line,relative viability
1,NCI-H596,1.02
2,NCI-H2405,1.12
3,NCI-H1395,0.967
4,201T,1.13
5,NCI-H1915,1
6,HCC-827,0.989
7,LXF-289,1.01
8,NCI-H2347,0.721
9,CAL-12T,1.2
10,NCI-H1651,0.871
11,EPLC-272H,0.845
12,NCI-H23,0.937
13,NCI-H1355,0.941
14,NCI-H322M,1.02
15,NCI-H1437,1.23
16,NCI-H1755,0.857

# Same assay, conditions: first compound 8 µM
row,Cell Line,relative viability
1,COR-L 105,1.03
2,LOU-NH91,0.924
3,ChaGo-K-1,0.976
4,NCI-H2170,0.977
5,NCI-H3122,0.887
6,HOP-62,0.945
7,LU99A,0.749
8,BEN,0.697
9,HARA,0.738
10,HCC-78,0.602
11,NCI-H441,0.968
12,LCLC-97TM1,0.868
13,NCI-H2023,0.773
14,A-427,0.966
15,NCI-H460,0.996
16,NCI-H838,0.943
